These results are taken from PubChem BioAssay AID1645848.

For this data set the following is noted: buffer; pH 7.4; 6.0 h; 150.0 µM.

Values after ≈ are worked out from the molar mass of the structure shown. Some results are limits rather than exact numbers.

A word on the solubility (kinetic): it is solubility judged after dilution from a stock solution rather than from solid. The compound `CC(C)c1cc(C(=O)N2CC[C@@H](NC(=O)C3CC3)C2)n[nH]1` came in with a kinetic solubility of more than 43 µg/mL. To `Cc1nn(CCc2nc(-c3ccc4ccccc4c3)cs2)c2[nH]c(=O)cc(C(F)(F)F)c12` belongs less than 1 µg/mL; to `Cc1cc(-c2nnc3n2CCCCC3)c(C)n1-c1cccc(C(F)(F)F)c1`, 32.8 µg/mL (≈ 87.5 µM); to `Brc1ccc(-c2csc(N3CCOCC3)n2)cc1`, 1.12 µg/mL (≈ 3.44 µM). The result for `CNC(=O)c1cccc(-c2cnc(Nc3cccc(C(F)(F)F)c3)c3c2CCO3)c1` reads less than 1 µg/mL; that for `COc1ccccc1Nc1ccnc(N2CCN(C(=O)c3ccc(C)cc3)CC2)n1`, 2.64 µg/mL (≈ 6.54 µM); that for `COc1ccc(-c2cc(-c3cccc4[nH]ncc34)cn3cncc23)cn1`, 5.52 µg/mL (≈ 16.2 µM). To `Cc1ccc(NS(=O)(=O)c2cc3c(cc2N[C@H](C)CO)NC(=O)CC3)cc1C` belongs more than 60 µg/mL. `COc1ccc(C2C=C(c3ccc(Cl)cc3)Nc3nc(-c4ccc(Cl)cc4)nn32)cc1` (stereo not drawn) came in with a solubility (kinetic) of less than 1 µg/mL. `Fc1ccccc1-c1ccc(Nc2nc(-c3ccncc3)nc3ccccc23)cc1F` returned a solubility (kinetic) of less than 1 µg/mL. The result for `COc1cccc(CNc2ccc(S(=O)(=O)Nc3ncc(-c4ccccc4)s3)cc2)c1O` reads 6.07 µg/mL (≈ 13 µM); that for `Cc1ccc2nc(NC3=NC(c4[nH]ncc4Cl)C4=C(CCCC4=O)N3)oc2c1` (stereo not drawn), less than 1 µg/mL; that for `O=S(=O)(Nc1nccs1)c1ccc(NCc2ccccc2O)cc1`, more than 53 µg/mL. The result for `Cc1ccc(S(=O)(=O)n2cc(C(=O)Nc3ccc(-c4ccccc4)cc3)c3ccccc32)cc1` reads less than 1 µg/mL. The result for `CC(=O)c1c(C)[nH]c(C(=O)Nc2cccc([S+](=O)([O-])Nc3ccccc3C)c2)c1C` reads less than 1 µg/mL; that for `Fc1ccc(-c2ccc(Nc3nc(-c4ccncc4)nc4ccccc34)cc2F)c(Cl)c1`, less than 1 µg/mL. `Cc1ccc(S(=O)(=O)Nc2ccccc2Nc2nc(-c3ccccc3)cs2)cc1` registered a solubility (kinetic) of less than 1 µg/mL. To `Cc1ccc(S(=O)(=O)Nc2cnccc2C(=O)Nc2ccc(-n3cncn3)cc2)cc1` belongs more than 64 µg/mL; to `O=c1cc(CN2CCCN(c3ccc(C(F)(F)F)cn3)CC2)nc2ccccn12`, more than 60 µg/mL; to `CCN1CCN(c2ncc3c(n2)CCN(Cc2cc(Br)cs2)C3)CC1`, 37.1 µg/mL (≈ 88 µM). To `O=C(N/N=C/c1ccc(Sc2ccccn2)o1)c1ccncc1` belongs more than 48 µg/mL; to `COc1ccccc1CNc1ccc(S(=O)(=O)Nc2nccs2)cc1`, 37.4 µg/mL (≈ 99.7 µM); to `CC(=O)c1c(C)[nH]c(C(=O)Nc2cccc([S+](=O)([O-])Nc3ccc(C#N)cc3)c2)c1C`, 36.8 µg/mL (≈ 84.3 µM). The result for `Cc1ccc(S(=O)(=O)c2cnc(SC(C)C(=O)Nc3ccccc3)[nH]c2=O)cc1` (stereo not drawn) reads more than 63 µg/mL. In turn, `Cn1c(=O)c2c(-c3ccc(Br)cc3)n(CCc3ccccc3)cc2n(C)c1=O` gave a kinetic solubility of 14.7 µg/mL (≈ 33.5 µM).

`O=C(Nc1nc(-c2ccc(F)cc2)cs1)c1ccncc1NS(=O)(=O)c1ccc(F)cc1`: the kinetic solubility came out at 30.2 µg/mL (≈ 63.9 µM). To `O=S(=O)(c1ccccc1)N1CCCCC1CCc1ccccc1` (stereo not drawn) belongs 4.39 µg/mL (≈ 13.3 µM).

For the compound `O=c1c(O)c(-c2ccc(O)cc2)oc2cc(O)cc(O)c12`, the solubility (kinetic) is 1.35 µg/mL (≈ 4.73 µM).

In the case of `Cc1nc(Nc2ncc(C(=O)Nc3c(C)cccc3Cl)s2)cc(N2CCN(CCO)CC2)n1`, the kinetic solubility came to 25.6 µg/mL (≈ 52.4 µM).

In the case of `O=C(Cc1ccc(Cl)c(Cl)c1)Nc1ccc(S(=O)(=O)Nc2ccccc2)cc1`, the kinetic solubility was less than 1 µg/mL. To `CCCc1ccc(-c2csc(NC(=O)c3ccncc3NS(=O)(=O)c3ccc(C)cc3)n2)cc1` belongs less than 1 µg/mL; to `CC(C)(C)C1CCc2[nH]c3ccccc3c(=O)c2C1` (stereo not drawn), 1.88 µg/mL (≈ 7.34 µM). `Clc1ccc(-c2nnc(C3CCCCC3)o2)cc1` registered a kinetic solubility of less than 1 µg/mL. To `N#CC1(c2ccc(NC(=O)c3cccnc3NCc3ccncc3)cc2)CCCC1` belongs less than 1 µg/mL; to `COc1cccc(CN2CCCC(c3nc(-c4ccncc4)ncc3-c3ccccc3)C2)c1O` (stereo not drawn), 4.29 µg/mL (≈ 9.47 µM). The result for `Cc1ccc(NC(=O)c2ccncc2NS(=O)(=O)c2ccc(C)cc2)cc1` reads 47.5 µg/mL (≈ 125 µM); that for `COC(=O)c1c(NC(=O)Cc2coc3cc(C)ccc23)sc2c1CCC2`, less than 1 µg/mL; that for `CCOC(=O)c1ccnc(CNCC(=O)N(CC)CCN(C)C)c1`, more than 50 µg/mL.

Regarding `COc1ccc(C2c3c(oc4ccc(Cl)cc4c3=O)C(=O)N2CCCN(C)C)cc1OC` (stereo not drawn), the kinetic solubility is more than 67 µg/mL. The result for `Cc1cc(-c2nnc3n2CCCCC3)c(C)n1-c1ccc(Br)cc1` reads 27.4 µg/mL (≈ 71.1 µM). The result for `CC1=C(C(=O)Nc2ccccc2)C(c2ccccc2Br)N=C(Nc2nc3ccccc3o2)N1` (stereo not drawn) reads less than 1 µg/mL. To `COc1ccc(-c2nc(N3CCOCC3)c3sc(CN(C)c4ncc(C(=O)NO)cn4)cc3n2)cn1` belongs 5.56 µg/mL (≈ 10.9 µM); to `O=C(Nc1cn[nH]c1-c1nc2ccc(CN3CCOCC3)cc2[nH]1)NC1CC1`, more than 38 µg/mL; to `CCOc1ccccc1C(=O)Nc1ccccc1C(=O)Nc1cccc(S(=O)(=O)C(F)(F)F)c1`, 1.57 µg/mL (≈ 3.18 µM). `NC(=O)C1CCN(c2nc(-c3ccccc3N)cs2)CC1` registered a kinetic solubility of 29.4 µg/mL (≈ 97.1 µM).

`Fc1cc(Nc2nc(-c3ccncc3)nc3ccccc23)ccc1-c1cncnc1` came in with a kinetic solubility of less than 1 µg/mL. Regarding `CCCCn1cnc2cc(NCc3ccc(OCC)cc3)ccc21`, the solubility (kinetic) was 10.1 µg/mL (≈ 31.2 µM).

`Fc1ccc(Nc2nccc(-c3ccncc3)n2)cc1F` showed a kinetic solubility of 2.48 µg/mL (≈ 8.71 µM).

`Cc1nsc(N)c1C(=O)N(C)CCOc1ccccc1Cl` had a solubility (kinetic) of more than 48 µg/mL.

On to `COc1ccc(NS(=O)(=O)c2ccc(C)c(C(=O)Nc3ccc4oc(C)nc4c3)c2)cc1`, for which the solubility (kinetic) worked out at 8.77 µg/mL (≈ 19.4 µM). As to `CC(C)c1ccccc1-c1ncc(F)c(NCC2CCN(c3cccnc3)CC2)n1`, the solubility (kinetic) was found to be 9.06 µg/mL (≈ 22.3 µM).

Consider `Cl.N=c1c2c(n(Cc3ccccc3)c3c1CCC3)CCC2`, for which the solubility (kinetic) is more than 39 µg/mL.

In turn, `CC(C)Oc1ccc(CCNC(=O)c2cc3sccc3n2Cc2ccccc2)cc1OC(C)C` registered a solubility (kinetic) of less than 1 µg/mL.

Compound `CC(C)(O)Cn1c(NC(=O)c2ccc(-c3cn[nH]c3)s2)nc2cc(CN3CCOCC3)ccc21` gave a solubility (kinetic) of 47 µg/mL (≈ 97.8 µM). In the case of `COc1cc([C@@H]2c3cc4c(cc3[C@H](O)[C@H]3COC(=O)[C@H]23)OCO4)cc(OC)c1OC`, the kinetic solubility is more than 61 µg/mL. To `NC(=O)C1CCN(c2nc(-c3ccc(N4CCCCC4)nc3)cs2)CC1` belongs 43.5 µg/mL (≈ 117 µM); to `Cc1ccc(OCCn2c(CCNC(=O)c3ccc(Cl)cc3)nc3ccccc32)cc1`, less than 1 µg/mL; to `CC(C)Oc1ccc(C(=O)Nc2ccc3c(c2)CCCN3C(=O)c2cccs2)cc1`, less than 1 µg/mL. To `Cc1cc(C)nc(NC(=S)N2CCN(c3cccc(C(F)(F)F)c3)CC2)c1` belongs 0.748 µg/mL (≈ 1.9 µM); to `CCc1cccc(CC)c1-n1c(C=C(C)C)c(C(=O)N2CCNCC2)cc(-c2nc(-c3ccc(C(F)(F)F)cc3)cs2)c1=O`, less than 1 µg/mL.

As to `COc1cccc(Nc2ncc(-c3cccc(N(C)C)c3)c3c2OCC3)c1`, the kinetic solubility was less than 1 µg/mL. On to `O=C(CCCN1CCC(n2c(=O)[nH]c3ccccc32)CC1)c1ccc(F)cc1`, for which the kinetic solubility stood at 33.3 µg/mL (≈ 87.2 µM). To `COc1ccc(-c2nc3ncccc3[nH]2)cc1` belongs more than 67 µg/mL. To `Cc1ccc(S(=O)(=O)Nc2cc(Cl)ccc2C(=O)Nc2nc(-c3ccccc3)cs2)cc1` belongs less than 1 µg/mL; to `Cc1ccc(S(=O)(=O)Nc2cnccc2C(=O)Nc2nc(-c3cccnc3)cs2)cc1`, more than 67 µg/mL; to `Fc1cnc(-c2ccccc2C(F)F)nc1NCC1CCN(c2cnccn2)C1` (stereo not drawn), 42.2 µg/mL (≈ 105 µM).

The compound `CCN(CC)CCCCNc1ncc2cc(-c3c(Cl)cccc3Cl)c(NC(=O)NC(C)(C)C)nc2n1` had a solubility (kinetic) of 34.7 µg/mL (≈ 65.2 µM). To `O=C(Nc1nc(-c2ccccc2)cs1)c1ccncc1NS(=O)(=O)c1ccc(F)cc1F` belongs more than 70 µg/mL. With `CC(=O)c1c(C)[nH]c(C(=O)Nc2cccc([S+](=O)([O-])N3CCC(F)(F)CC3)c2)c1C`, the kinetic solubility came out at 8.98 µg/mL (≈ 20.4 µM). The result for `CN1CC(CNC(=O)OCc2ccccc2)C[C@H]2c3cccc4c3c(cn4C)CC21` (stereo partly drawn) reads 38.4 µg/mL (≈ 95.2 µM); that for `Cc1ccc(CN2CCOC[C@H]2c2ncc(-c3cccc(F)c3)[nH]2)cc1`, 10.4 µg/mL (≈ 29.7 µM). To `O=C(NCC1Cn2cccc2CN1Cc1cccnc1)Nc1ccccc1` (stereo not drawn) belongs more than 53 µg/mL; to `Oc1ccc(CN2CC(CNc3ccccc3)C3(C2)CN(c2ccccc2)C3)cc1` (stereo not drawn), 1.79 µg/mL (≈ 4.47 µM); to `CC(C)c1nc2oc3c(NCCN(C)C)ncnc3c2c2c1COC(C)(C)C2`, more than 57 µg/mL. Turning to `O=C(Nc1cccc(OC(F)(F)F)c1)c1cc(-c2ccc[nH]2)n[nH]1`, the solubility (kinetic) is 10.8 µg/mL (≈ 32 µM). The result for `Clc1ccc2ncc(-c3cccc(NC4CCNCC4)n3)n2c1` reads more than 48 µg/mL; that for `Cc1cc(-c2nnc3n2CCCCC3)c(C)n1-c1ccc(C(F)(F)F)cc1`, 43.3 µg/mL (≈ 116 µM). Take `O=C(Nc1nc(-c2ccccc2)cs1)c1ccncc1NS(=O)(=O)c1cccc(Cl)c1`: the kinetic solubility is less than 1 µg/mL. Compound `Cc1ccc(C(N)=O)cc1Nc1nccc(-c2cn(C(C)C)c3cnccc23)n1` displayed a kinetic solubility of 45.2 µg/mL (≈ 117 µM). For `Cc1ccc(S(=O)(=O)Nc2ccc(C)cc2C(=O)Nc2nc(-c3ccccc3)cs2)cc1`, the solubility (kinetic) was less than 1 µg/mL.

Compound `Clc1ccc(Nc2nc(-c3ccncc3)nc3ccccc23)cc1Cl` displayed a solubility (kinetic) of less than 1 µg/mL. The result for `CCOc1ccc(CCNC(=O)c2cc3sccc3n2Cc2ccccc2)c(F)c1OCC` reads less than 1 µg/mL; that for `Cc1ccc(C(=O)N2CCc3cc(-c4nc(NC(=O)Cc5ccc6c(c5)OCO6)sc4C)ccc32)cc1`, less than 1 µg/mL; that for `C=CC(=O)Nc1cccc(Oc2nc(Nc3ccc(N4CCN(C)CC4)cc3)ncc2Cl)c1`, less than 1 µg/mL. The result for `c1ccc(-c2nc(N3CCCCCC3)c3ccccc3n2)nc1` reads more than 45 µg/mL. On to `NC(=O)N1CCN(c2nc(-c3ccc(Br)cc3)cs2)CC1`, for which the kinetic solubility amounted to 1.84 µg/mL (≈ 5.01 µM). To `COc1ccc(OC)c(N2C(=O)C(Cl)=C(N3CCCCC3)C2=O)c1` belongs less than 1 µg/mL.

`O=[S+]([O-])(Nc1ccc(-c2ccccc2)cc1)c1ccc(NCc2ccc(Cl)cc2O)cc1` showed a kinetic solubility of less than 1 µg/mL.
